Test results from patent publication US20020147155A1, “Prevention and treatment of endometriosis with aryl hydrocarbon receptor binding ligands” (priority 2001, published 2002).

Key:
endometriosis = conditions: rodents and monkeys; cited from earlier work
endometriotic tissue = assay: Surgically induced endometriosis (autotransplanted endometrial fragments) in cynomolgus monkeys, laparoscopy; type: in vivo, Macaca fascicularis; conditions: for Endometriotic lesion diameter: control 11.4±1.6
From the text: Numerous animal models of endometriosis have been developed involving rabbits (Rock, J A et al., Intraocular endometrium in the rabbit as a model for endometriosis, Fertil. Steril. 59:232-35 [1993]), rodents (Sakura, Y et al., Histological studies on the therapeutic effect of sustained-release microspheres of a potent LHRH agonist (leuprorelin acetate) in an experimental endometriosis model in rats, Endocrinol. Jpn. 37:719-729 [1990]; Rajkumar, K et al., The rat as an animal model for endometriosis to examine recurrence of ectopic endometrial tissue after regression, Fertil. Steril. 53:921-25 [1990]; Sudo, K et al., Effects of TAP-144-SR, a sustained-release formulation of a potent GnRH agonist, on experimental endometriosis in the rat, Endocrinol. Jpn. […] Gynecol. […] Steril. […] An. Sci. 33 :P15 [1994]; Cummings, A M and Metcalf, J L, Induction of endometriosis in mice: a new model sensitive to estrogen, Reprod. Toxicol. 9:233-38 [1995]; Cummings, A M et al., Promotion of endometriosis by 2,3,7,8-tetrachlorodibenzo-p-dioxin in rats and mice: time-dose dependence and species comparison, Toxicol. Appl. Pharmacol. 138:131-39 [1996]; Foster, W G et al., Morphologic characteristics of endometriosis in the mouse model: application to toxicology, Can. J. Physiol. Pharmacol. 75:1188-96 [1997]; Aoki, D et al., Successful heterotransplantation of human endometrium in SCID mice, Obstet. Gynecol. 83:220-28 [1994]; Bruner, K L et al., Suppression of matrix metalloproteinases inhibits establishment of ectopic lesions by human endometrium in nude mice, J. Clin. Invest. 99:2851-57 [1997]), and non-human primates (Schenken, R S et al., Etiology of infertility in monkeys with endometriosis: luteinized unruptured follicles, luteal phase defects, pelvic adhesions, and spontaneous abortions, Fertil. Steril. 41:122-30 [1984]; Rier, S E et al., Endometriosis in rhesus monkeys (Macaca mulatta) following chronic exposure to tetrachlorodibenzo-p-dioxin, Fund. Appl. Toxicol. 21:433-41 [1993]; D'Hooghe, T D et al., Development of a model of retrograde menstruation in baboons (Papio anubis), Fertil. Steril. 62:635-38 [1994]). […] Therefore, a non-human primate model was selected, because monkeys and baboons spontaneously develop endometriosis, the pathophysiology of the disease resembles humans and abundant tissue can be obtained for study purposes. In particular, nulliparous female cynomolgus monkeys (Macaca fascicularis) were the animals chosen.
The effects of subchronic exposure to an AhR binding ligand was examined in a non-human primate model. Endometrial fragments were surgically autotransplanted to the pelvic cavity of nulliparous cynomolgus monkeys (Macaca fascicularis, n=23). Briefly, each monkey's own endometrial tissue was obtained during a laparotomy in which the body of the uterus was opened in the anterior midline. A strip of endometrium was removed by careful dissection and divided into a number of equal pieces, one of which was used for histopathology to confirm the presence of both endometrial epithelium and stroma. […]
The monkeys were divided into 4 treatment groups and dosed five days a week with gelatin capsules containing 0, 1, 5 or 25 ng/kg body mass of AhR binding ligand 2,3,7,8-tetrachlorodibenzo-p-dioxin (TCDD), mixed with glucose. Endometriotic implant survival and diameter were monitored by laparoscopy at intervals of one, three, six and 12 months.

[1] = molecular target: T1, aryl hydrocarbon receptor (Homo sapiens, UniProt P35869); conditions: in culture; cited from earlier work
T1 sequence (P35869 11-848): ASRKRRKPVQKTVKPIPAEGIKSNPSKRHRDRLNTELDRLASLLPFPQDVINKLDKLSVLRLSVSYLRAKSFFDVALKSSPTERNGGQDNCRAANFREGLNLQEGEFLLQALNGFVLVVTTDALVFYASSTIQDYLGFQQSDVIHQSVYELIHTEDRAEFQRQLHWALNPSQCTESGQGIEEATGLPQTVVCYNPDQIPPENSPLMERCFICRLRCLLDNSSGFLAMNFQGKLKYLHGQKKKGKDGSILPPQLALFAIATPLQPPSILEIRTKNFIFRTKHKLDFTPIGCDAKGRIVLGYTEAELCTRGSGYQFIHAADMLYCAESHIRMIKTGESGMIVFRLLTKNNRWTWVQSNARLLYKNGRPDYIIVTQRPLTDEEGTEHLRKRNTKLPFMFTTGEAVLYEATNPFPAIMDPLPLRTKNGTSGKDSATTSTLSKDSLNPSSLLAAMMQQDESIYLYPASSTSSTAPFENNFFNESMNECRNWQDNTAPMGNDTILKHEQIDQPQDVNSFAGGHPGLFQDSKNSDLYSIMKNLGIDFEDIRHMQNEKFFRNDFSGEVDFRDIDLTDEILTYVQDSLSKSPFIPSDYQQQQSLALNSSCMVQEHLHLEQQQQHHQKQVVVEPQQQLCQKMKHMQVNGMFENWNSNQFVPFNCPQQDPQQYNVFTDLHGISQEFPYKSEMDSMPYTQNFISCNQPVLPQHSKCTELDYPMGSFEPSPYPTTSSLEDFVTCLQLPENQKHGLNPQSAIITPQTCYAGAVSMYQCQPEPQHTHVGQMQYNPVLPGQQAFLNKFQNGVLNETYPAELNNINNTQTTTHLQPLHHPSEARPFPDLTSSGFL

uterus = conditions: animal experiment; cited from earlier work
estrogen metabolites = conditions: oral administration, women; cited from earlier work

**Q.** With `Clc1cc2c(cc1Cl)Oc1cc(Cl)c(Cl)cc1O2` [TCDD, 2,3,7,8-tetrachlorodibenzo-p-dioxin] as the compound, how does the Effect on endometriosis (endometriosis) read?
**A.** promoted endometriosis

**Q.** What about the Endometriotic lesion diameter (endometriotic tissue; 0.71 ng/kg/day TCDD, oral gelatin capsules) of the same compound?
**A.** 4.2±0.9 mm

**Q.** And the “Endometriotic lesion survival rate” value (endometriotic tissue; 0.71 ng/kg/day TCDD, oral, control 16%)?
**A.** 20%

**Q.** What about the “Endometriotic lesion survival rate” value (endometriotic tissue; 3.57 ng/kg/day TCDD for one year, oral, control 16.0%) of the same compound?
**A.** 26.7%

**Q.** What about the Endometriotic lesion diameter (endometriotic tissue; 17.86 ng/kg/day TCDD for one year, oral) of the same compound?
**A.** 14.5±0.2 mm

**Q.** And the “Endometriotic lesion survival rate” value (endometriotic tissue; 17.86 ng/kg/day TCDD for one year, oral, control 16.0%)?
**A.** 33.3%

**Q.** With `N[C@@H](Cc1c[nH]c2ccccc12)C(=O)O` [tryptophan] as the compound, how does the “Binding to and activation of aryl hydrocarbon receptor” value [1] read?
**A.** bind to and activate

**Q.** For `Fc1ccc2[nH]cc(Cc3c[nH]c4ccccc34)c2c1` [5-fluoro-diindolylmethane], which “Uterine wet weight as a percentage of body weight” value (uterus) is on record?
**A.** increase

**Q.** Which “Levels of estrogen metabolites” value (estrogen metabolites) does the source give for `OCc1c[nH]c2ccccc12` [indole-3-carbinol] here?
**A.** reduce levels of estrogen metabolites

**Q.** With `NCCc1c[nH]c2ccccc12` [tryptamine] as the compound, how does the “Binding to and activation of aryl hydrocarbon receptor” value [1] read?
**A.** bind to and activate
